Results taken from patent US20260083722A1, “BIFUNCTIONAL DEGRADERS COMPRISING ELECTROPHILIC PROTACS THAT ENGAGE DCAF1 AND PHARMACEUTICAL COMPOSITIONS COMPRISING THE SAME” (THE SCRIPPS RESEARCH INSTITUTE, priority 2022, published 2026).

Experiments:
[1] = molecular target: T1, recombinant DCAF1-WT (a.a.'s 1046-1396) (Homo sapiens, UniProt Q9Y4B6); assay: gel-ABPP with recombinant purified DCAF1-WT doped into HEK293T cell proteome; type: binding; conditions: for inhibition of MY-11B probe reactivity with recombinant DCAF1: 2 h, then MY-11B 25 μM 1 h, YT41S and YT47S at single concentration 100 μM; for plateau of blockade of MY-11B labeling: at 20 µM test concentrations; for gel-shift of recombinant DCAF1 by Coomassie blue staining: in the presence of compound
T1 construct: form of DCAF1 containing the WD40 domain (amino acids (a.a.'s) 1046-1396); made in house
Text: FIG. 2 that azetidine acrylamides stereo- and site-selectively engage recombinant DCAF1_C1113. (A) Domain map of DCAF1 with the region used for recombinant protein studies marked in a bracket (a.a.'s 1046-1396) and C1113 highlighted in red. (B) Crystal structure of a DCAF1-Vpx complex (pdb: 5AJA). DCAF1 (a.a.'s 1046-1396) is shown in cyan, Vpx is shown in yellow, and C1113, which is located at the DCAF1-Vpx interface is shown in red. (C) Structures of alkyne-modified azetidine acrylamides MY-11A (5) and MY-11B (6). (D) Gel-ABPP showing the concentration-dependent reactivity of MY-11A and MY-11B (1 h) reactivity with recombinant, purified DCAF1-WT or the DCAF1-C1113A mutant (0.06 μg/μL of DCAF1 protein per sample) doped into HEK293T cell proteome (1 μg/μL). MY-11A/B labeling of proteins was visualized by CuAAC conjugation to an azide-rhodamine tag followed by SDS-PAGE and in-gel fluorescence scanning. Results are from a single experiment representative of two independent experiments. (E) Gel-ABPP showing the concentration-dependent effects of MY-1A and MY-1B on MY-11B reactivity with DCAF1-WT. Samples were treated with MY-1A/B for 2 h, followed by MY-11B (25 μM, 1 h) and analyzed as described in (D). Left, quantification of data presented as mean values±SEM from two independent experiments. Right, representative gel-ABPP results. (D, E) Lower images are Coomassie blue-stained gels corresponding to ABPP gels shown in upper images.
(A) Structures of candidate electrophilic PROTACs YT41R (7), YT41S (8), YT47R (9), and YT47S (10). (B) Gel-ABPP showing the concentration-dependent effects of YT41R and YT47R on MY-11B reactivity with DCAF1-WT protein (0.06 μg/μL of DCAF1 protein per sample) doped into HEK293T cell proteome (1 μg/μL). Also shown are the effects of YT41S and YT47S tested at a single concentration (100 μM). Samples were treated with heterobifunctional compounds for 2 h, followed by MY-11B (25 μM, 1 h) and analyzed as described in FIG. 2D. Left, representative gel-ABPP results. Lower image is Coomassie blue-stained gel corresponding to ABPP gel shown in upper image. Right, quantification of data presented as mean values±SEM from two independent experiments.
DCAF1 is a multi-domain substrate receptor for CRL4 ligases (FIG. 2A) that has diverse physiological and disease functions, including being co-opted by the HIV-2 virus to promote degradation of the antiviral host protein SAMHD1^27-28. […] We verified the stereo- and site-selective engagement of DCAF1_C1113 by azetidine acrylamides using alkynylated analogues of MY-1A and MY-1B (MY-11A (5) and MY-11B (6), respectively; FIG. 2C). For these experiments, we doped into HEK293T cell lysates a recombinantly expressed and purified form of DCAF1 containing the WD40 domain (amino acids (a.a.'s) 1046-1396), in complex with the CRL4 adaptor protein DDB1^31, and exposed these samples to varying concentrations of MY-11A or MY-11B. After 1 h, we assessed MY-11A and MY-11B engagement of DCAF1 by copper-catalyzed azide-alkyne cycloaddition (CuAAC)^32 with an azide-rhodamine reporter tag followed by SDS-PAGE and in-gel fluorescence scanning^33. […] We used gel-ABPP to quantify an in vitro target engagement value (TE50) of approximately 25 μM (95% C.I.=13-38 μM) for MY-1B labeling of DCAF1 (FIG. 2E, left).

[2] = test system: ternary complex of FKBP12 and DCAF1; assay: co-immunoprecipitation of DCAF1 with HA-FKBP12 in HEK293T cells (ternary complex); type: cell-based; conditions: 5 μM, 2 h
Protocol: (§1) (A) Left, western blots showing effects of YT47R and YT47S on the immunoprecipitation (IP) of FLAG-DCAF1-WT or FLAG-DCAF1-C1113A with HA-FKBP12 in HEK293T cells co-expressing these proteins. Cells were treated with YT47R or YT47S (5 μM) for 2 h in the presence of MG132 (10 μM) prior to lysis and IP with an anti-HA antibody and western blotting for the indicated proteins (DCAF1, FKBP12, and ubiquitinated protein). Right, bar graphs quantifying DCAF1 (top) and ubiquitination (Ub) (bottom) in the indicated IP groups. (B) Left, western blots showing effects of YT47R and YT47S on the IP of endogenous DCAF1 with HA-FKBP12 in HEK293T cells expressing HA-FKBP12. Cells were treated with YT47R or YT47S (5 μM) for 2 h in the presence of MG132 (10 μM) prior to lysis and IP with an anti-HA antibody and western blotting for the indicated proteins (DCAF1, FKBP12). Right, bar graph quantifying DCAF1 in the indicated IP groups. For (A, B), data are mean values±SEM for three independent experiments. Statistical significance was calculated with unpaired two-tailed Student's t-tests comparing YT41R/YT47R- and DMSO-treated cells. **P<0.01, ****P<0.0001. (C) MS-ABPP quantification of IA-DTB labeling of the indicated cysteines in DCAF1 from FLAG-DCAF1-WT-expressing HEK293T cells treated with the indicated concentrations of YT47R (3 h) relative to cells treated with DMSO. Data represent average values±SEM from four independent experiments. Statistical significance was calculated with unpaired two-tailed Student's t-tests comparing compound to DMSO treated cells. *P<0.1.
Finally, we investigated whether electrophilic PROTACs induce a stable ternary complex of FKBP12 with DCAF1 and promote FKBP12 ubiquitination. […] A ternary complex was not observed in cells expressing the DCAF1-C1113A mutant (FIG. 6A), supporting that YT47R induces this complex through site-specifically reacting with C1113. […] In considering possible reasons why this ternary complex formation with endogenous DCAF1 was insufficient to support the degradation of recombinantly expressed FKBP12 (FIG. 4A), we speculate that our current PROTACs (YT41R, YT47R) may require further improvements in cellular properties to enable robust targeted protein degradation mediated by physiological concentrations of DCAF1.

[3] = molecular target: T2, C1113 of recombinantly expressed DCAF1 (Homo sapiens, UniProt Q9Y4B6); assay: MS-ABPP in FLAG-DCAF1-WT-expressing HEK293T cells; type: cell-based; conditions: 5 μM, 3 h
T2 construct: expressed in transfected cells; host or cells: HEK293T
Protocol: as §1, with “Cells were treated with YT47R or YT47S (5 μM) for 2 h in the presence of MG132 (10 μM) prior to lysis and IP with an anti-HA antibody and western blotting for the indicated proteins (DCAF1, FKBP12).” left out, “For (A, B), data are mean values±SEM for three independent experiments.” left out, “Data represent average values±SEM from four independent experiments.” left out, “*P<0.1. […]” for “*P<0.1.”

T1 sequence (Q9Y4B6 1046-1396): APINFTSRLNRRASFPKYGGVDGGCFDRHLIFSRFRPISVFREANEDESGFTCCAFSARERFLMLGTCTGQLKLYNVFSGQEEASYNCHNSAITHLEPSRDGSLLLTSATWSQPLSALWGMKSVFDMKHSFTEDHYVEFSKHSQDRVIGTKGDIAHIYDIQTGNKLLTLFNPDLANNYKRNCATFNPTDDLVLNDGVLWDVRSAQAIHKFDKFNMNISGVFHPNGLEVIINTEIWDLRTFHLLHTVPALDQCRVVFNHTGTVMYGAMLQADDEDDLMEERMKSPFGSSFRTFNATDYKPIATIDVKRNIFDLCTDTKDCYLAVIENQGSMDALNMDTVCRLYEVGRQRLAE
T1 sequence (Q16531 whole entry partner, the tested form may be a part): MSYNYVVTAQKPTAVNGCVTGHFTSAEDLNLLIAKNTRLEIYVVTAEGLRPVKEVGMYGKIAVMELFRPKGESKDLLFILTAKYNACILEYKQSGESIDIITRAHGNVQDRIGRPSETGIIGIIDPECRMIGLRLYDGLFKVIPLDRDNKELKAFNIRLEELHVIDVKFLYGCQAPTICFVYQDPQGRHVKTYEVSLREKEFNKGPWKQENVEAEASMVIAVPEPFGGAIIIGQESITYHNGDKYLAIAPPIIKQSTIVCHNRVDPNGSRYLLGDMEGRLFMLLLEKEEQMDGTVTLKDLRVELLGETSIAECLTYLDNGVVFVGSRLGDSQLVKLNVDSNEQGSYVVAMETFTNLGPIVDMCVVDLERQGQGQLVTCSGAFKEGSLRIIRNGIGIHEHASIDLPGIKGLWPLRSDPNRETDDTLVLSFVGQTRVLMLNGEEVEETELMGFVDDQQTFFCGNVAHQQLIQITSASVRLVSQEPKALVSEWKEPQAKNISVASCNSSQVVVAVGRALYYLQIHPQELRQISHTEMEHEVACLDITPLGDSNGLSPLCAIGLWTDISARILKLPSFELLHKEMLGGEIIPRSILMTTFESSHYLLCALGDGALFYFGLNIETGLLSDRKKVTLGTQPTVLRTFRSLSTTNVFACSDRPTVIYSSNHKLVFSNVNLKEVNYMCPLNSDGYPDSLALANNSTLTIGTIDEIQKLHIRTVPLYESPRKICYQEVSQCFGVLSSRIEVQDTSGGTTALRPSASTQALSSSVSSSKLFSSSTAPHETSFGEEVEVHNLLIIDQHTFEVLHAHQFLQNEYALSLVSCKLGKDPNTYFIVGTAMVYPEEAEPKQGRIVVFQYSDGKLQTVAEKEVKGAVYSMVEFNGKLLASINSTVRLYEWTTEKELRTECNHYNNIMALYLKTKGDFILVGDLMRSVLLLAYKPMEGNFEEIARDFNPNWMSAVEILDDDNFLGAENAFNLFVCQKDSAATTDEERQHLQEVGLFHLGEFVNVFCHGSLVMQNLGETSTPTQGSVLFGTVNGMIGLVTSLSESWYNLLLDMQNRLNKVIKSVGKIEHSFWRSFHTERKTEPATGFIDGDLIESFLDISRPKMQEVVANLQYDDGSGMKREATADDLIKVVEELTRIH
T2 sequence (Q9Y4B6 whole entry): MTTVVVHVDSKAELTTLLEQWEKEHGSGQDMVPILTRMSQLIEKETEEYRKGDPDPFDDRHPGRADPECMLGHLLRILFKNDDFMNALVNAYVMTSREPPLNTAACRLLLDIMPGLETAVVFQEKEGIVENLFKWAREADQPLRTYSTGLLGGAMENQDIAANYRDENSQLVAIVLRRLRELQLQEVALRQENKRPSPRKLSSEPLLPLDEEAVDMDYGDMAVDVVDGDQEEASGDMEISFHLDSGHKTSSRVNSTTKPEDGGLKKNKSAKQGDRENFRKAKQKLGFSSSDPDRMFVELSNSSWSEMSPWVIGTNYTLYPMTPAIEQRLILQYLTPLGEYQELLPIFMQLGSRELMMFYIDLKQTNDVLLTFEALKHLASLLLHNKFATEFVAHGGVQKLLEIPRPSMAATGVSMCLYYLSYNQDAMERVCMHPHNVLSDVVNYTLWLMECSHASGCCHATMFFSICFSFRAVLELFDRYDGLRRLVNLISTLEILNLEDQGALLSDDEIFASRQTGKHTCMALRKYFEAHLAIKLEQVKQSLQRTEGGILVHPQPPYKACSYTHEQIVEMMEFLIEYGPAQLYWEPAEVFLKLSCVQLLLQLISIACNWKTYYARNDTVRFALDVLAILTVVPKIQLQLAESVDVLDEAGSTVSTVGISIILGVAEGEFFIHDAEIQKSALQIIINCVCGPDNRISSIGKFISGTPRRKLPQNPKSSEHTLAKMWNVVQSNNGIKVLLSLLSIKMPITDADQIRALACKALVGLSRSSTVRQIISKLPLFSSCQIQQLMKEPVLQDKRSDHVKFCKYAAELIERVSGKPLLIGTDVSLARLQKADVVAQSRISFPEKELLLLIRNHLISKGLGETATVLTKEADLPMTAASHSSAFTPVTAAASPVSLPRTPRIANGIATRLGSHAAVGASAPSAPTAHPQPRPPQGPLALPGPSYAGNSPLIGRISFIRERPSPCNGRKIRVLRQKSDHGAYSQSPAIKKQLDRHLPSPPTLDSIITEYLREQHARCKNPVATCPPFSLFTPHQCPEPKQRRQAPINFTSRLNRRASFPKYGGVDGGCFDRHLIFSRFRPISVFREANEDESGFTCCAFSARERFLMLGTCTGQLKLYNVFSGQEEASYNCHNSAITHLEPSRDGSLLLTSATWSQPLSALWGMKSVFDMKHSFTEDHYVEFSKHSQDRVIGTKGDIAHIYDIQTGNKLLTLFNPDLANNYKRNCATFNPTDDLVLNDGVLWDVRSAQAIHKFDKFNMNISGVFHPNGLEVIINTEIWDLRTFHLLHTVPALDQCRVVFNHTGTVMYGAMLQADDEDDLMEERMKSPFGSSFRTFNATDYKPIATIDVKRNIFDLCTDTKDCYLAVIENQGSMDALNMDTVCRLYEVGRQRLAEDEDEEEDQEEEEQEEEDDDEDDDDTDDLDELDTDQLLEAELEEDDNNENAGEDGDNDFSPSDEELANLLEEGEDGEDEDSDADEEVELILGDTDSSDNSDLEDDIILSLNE

Row | Structure (SMILES) | inhibition of MY-11B probe reactivity with recombinant DCAF1 [1] | plateau of blockade of MY-11B labeling [1] [%] | gel-shift of recombinant DCAF1 by Coomassie blue staining [1] | ternary complex of FKBP12 and DCAF1 ([2]; FLAG-DCAF1-WT, in the presence of MG132 (10 μM)) | ternary complex of endogenous DCAF1 with HA-FKBP12 ([2]; HEK293T expressing HA-FKBP12 only, MG132, compared to YT47S or DMSO) | ternary complex of FKBP12 and DCAF1 ([2]; cells expressing the DCAF1-C1113A mutant, MG132) | engagement of C1113 of recombinantly expressed DCAF1 [3] [%]
1 | C=CC(=O)C1C[C@H](c2ccc(C(=O)NCCOCCOCCNC(=O)COc3cccc([C@@H](CCc4ccc(OC)c(OC)c4)OC(=O)[C@@H]4CCCCN4C(=O)C(=O)C(C)(C)CC)c3)cc2)[C@@H]1C(=O)Nc1cccc2cccnc12 (stereo partly shown) [YT41R] | concentration-dependent inhibition | ~75 | apparent gel-shift | – | – | – | –
2 | C=CC(=O)N1C[C@H](c2ccc(C(=O)NCCOCCOCCOCCNC(=O)COc3cccc([C@@H](CCc4ccc(OC)c(OC)c4)OC(=O)[C@@H]4CCCCN4C(=O)C(=O)C(C)(C)CC)c3)cc2)[C@@H]1C(=O)Nc1cccc2cccnc12 [YT47R] | concentration-dependent inhibition | ~75 | apparent gel-shift | clear evidence of a ternary complex | more robust ternary complex | not observed | ~20
